Experimental data reported in patent US10888569B1, “Methods and compositions for treating cancer” (THE UNIVERSITY OF CHICAGO, priority 2017, dated 2021).

How the values were obtained:
BACH1 = target: T1, BACH1 (Mus musculus, UniProt P97302, C438A/C464A/C495A/C649A); test: Immunoblotting of BACH1 in cell lysates after hemin; type: cell-based, human; conditions: hemin 20 μM
T1 construct: Protein blots of BACH1 levels in BM1 and MB436 cells treated with Hemin for 4 or 24 hours; endogenous in cells; host or cells: BM1 (MDA-MB-231 derivative), MDA-MB-436, BT549
T1 sequence (P97302 1-739 C438A/C464A/C495A/C649A): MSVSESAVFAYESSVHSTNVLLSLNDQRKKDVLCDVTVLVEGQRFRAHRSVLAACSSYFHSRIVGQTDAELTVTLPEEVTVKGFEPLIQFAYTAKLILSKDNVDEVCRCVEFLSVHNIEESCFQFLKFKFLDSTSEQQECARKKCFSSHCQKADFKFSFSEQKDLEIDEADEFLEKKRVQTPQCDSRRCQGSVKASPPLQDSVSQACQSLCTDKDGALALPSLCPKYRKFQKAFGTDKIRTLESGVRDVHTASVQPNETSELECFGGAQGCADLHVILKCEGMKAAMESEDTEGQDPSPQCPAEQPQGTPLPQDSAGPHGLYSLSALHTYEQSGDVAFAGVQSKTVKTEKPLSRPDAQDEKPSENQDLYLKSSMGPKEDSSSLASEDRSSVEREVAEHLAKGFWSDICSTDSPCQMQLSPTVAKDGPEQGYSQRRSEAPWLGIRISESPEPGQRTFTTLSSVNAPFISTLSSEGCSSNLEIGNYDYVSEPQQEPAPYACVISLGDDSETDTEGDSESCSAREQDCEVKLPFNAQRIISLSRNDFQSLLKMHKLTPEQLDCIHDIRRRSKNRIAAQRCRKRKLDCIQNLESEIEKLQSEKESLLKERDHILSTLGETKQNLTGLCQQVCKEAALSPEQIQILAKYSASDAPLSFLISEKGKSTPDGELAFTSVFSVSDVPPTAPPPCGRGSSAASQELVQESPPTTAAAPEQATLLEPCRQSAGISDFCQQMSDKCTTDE
Protocol: Whole cell lysates were prepared using RIPA buffer (Sigma) with protease inhibitor cocktails (1:100 ThermoFisher) and phosphatase inhibitors (SimpleStop1, Gold Biotechnology) at 4° C. and quantified using Bradford assays for western blotting using antibodies against BACH1 (sc-271211; Santa Cruz), and alpha-TUBULIN (sc-28199; Santa Cruz). Blots were imaged and processed using a Licor Odyssey Fc, dual-mode imaging system (Licor).

[1] = test system: mitochondrial inner membrane genes; test: Real-time quantitative PCR of mitochondrial inner membrane (ETC) genes; type: cell-based, human; conditions: hemin 20 μM, 48 hours; BM1 and MB436 cells
Protocol: (§1) Total RNA from cells and tumor samples was isolated using Trizol (Invitrogen) according to the manufacturer's instructions. Two μg of RNA was adapted for reverse transcriptase PCR (Applied Biosystem) to generate cDNA. Real-time PCR was carried out using LightCycler 96 (Roche) and a Fast Start Essential DNA master mix (2×) reagent. Cq values normalized relative to the expression of endogenous control genes using 2^(−ΔΔCq) were plotted.

HMOX1 = test: Real-time quantitative PCR of HMOX1; type: cell-based, human; conditions: hemin 20 μM, 48 hours; BM1 and MB436 cells
Protocol: as §1

TNBC cells (BM1) = test: Metabolic phenotypes OCR and ECAR (Seahorse analyzer); type: cell-based, human; conditions: hemin (pre-)treatment overnight
Protocol: TNBC cell lines stably knocked down with lenti-viral shRNA for BACH1 were constructed and maintained as described previously. Gene expression analysis of cultured cells and isolated tumor tissues used a Reverse transcriptase kit followed by Roche96 cycler for real time mRNA quantification and Lycor imaging for immunoblotting. For in vitro cell viability assay with mitochondrial inhibitors, TNBC cells (2×10^3-5×10^3/well) seeded on 96 well plates overnight with culture media (DMEM with 25 mM Glucose) were treated with inhibitors in fresh culture media (DMEM with 1.25 mM Glucose) for 48 and 72 hours and stained with calcein AM and/or monitored for cellular confluency using an IncuCyte Zoom Live Cell Analysis system. Extracellular flux analyzer was used to assay metabolic phenotypes of BACH1-depleted TNBC cells and TNBC cells that are treated with hemin overnight before assays. For bioinformatics analysis using primary patient data cohort (TCGA), cBioportal and R were used.
Extracellular acidification rates (ECAR) and oxygen consumption rates (OCR) were monitored by a Seahorse Bioscience Analyzer (XF24; Univ. of Illinois at Chicago and XFe96; Biophysics Core Facility at Univ. of Chicago). Cells were seeded in 24 well plates at a density of 5×10^4 and 96 well plates at a density of 8×10^3 cells per well with growth media for at least 18 hours. The following day, media was changed to base media (DMEM, 143 mM NaCl, Phenol red, pH 7.35). For ECAR analysis, cells were added with media (2 mM Glutamine, pH 7.35) and monitored every 3 minutes following successive administration of 10 mM of glucose, and inhibitors such as 1 μM of oligomycin and 50 mM of 2-DG. For OCR analysis, cells were added with mito stress test base media (10 mM Glucose, 2 mM Glutamine, 1 mM Pyruvate, pH 7.4) and monitored every 3 minutes following successive administration of inhibitors such as 2 μM of oligomycin, 2 μM of FCCP, and […] of Rotenone/AntimycinA. BCA protein assays were used to normalize metabolic rates to cell number.

[2] = test system: BACH1-enriched TNBC PDX tumor; test: Patient-derived xenograft (PDX) model treated with hemin and metformin; type: in vivo, mouse; conditions: hemin 50 mg/kg/day i.p. and/or metformin 300 mg/kg/day; SCID-BEIGE mice
Protocol: For a patient-derived xenografts (PDX) model, frozen PDX tumors in 0.5 ml of sterile HBSS were prepared in a volume of 10-20 mm^3. In brief, tumor fragments were implanted into the mammary fat pads of 5 weeks old SCID-Beige mice following standard procedures. […] Tumor volume was measured by caliper weekly. Tumor weight was measured at the end of drug treatment. Tumor size was shown as mean+/_s.e.m. with significance (p-value) by paired Student's t-test. All the animals were also monitored regularly for body weights.

pPDH (Ser293) = test: Immunoblotting of PDX tumor lysates: pPDH (Ser293); type: in vivo, mouse; conditions: following hemin treatment
MB436 xenograft tumors = conditions: hemin 50 mg/kg/day i.p. 10 consecutive days prior to metformin 200 mg/kg
Protocol: Two million human breast cancer cells (MDA-MB-436-shCont, MDA-MB-436-shBACH1, BM1-shBACH1, or BM1-shCont) in 100 μl PBS were injected into the mammary fat pads of 5 to 6 weeks old athymic nude female mice (Charles River Laboratories). When tumors were about 20-30 or 50 mm^3 in volume, hemin (50 mg/kg/day) or vehicle (20 mM NaOH in phosphate buffered saline) was injected intraperitoneally for 10 days prior to metformin treatment for 8 weeks. Metformin (200 mg/kg for MDA-MB-436 cells or 300 mg/kg for BM1-cells) was provided in drinking water ad libidum. Tumor growth was monitored weekly by caliper measurement in two dimensions to generate ellipsoid volumes using an equation of vol.=0.4×(L×W^2).

SMILES: C=CC1=C(C)c2cc3[n-]c(cc4[n-]c(cc5nc(cc1n2)C(C)=C5C=C)c(C)c4CCC(=O)O)c(CCC(=O)O)c3C.[Cl-].[Fe+3] [hemin, Chloro[3,7,12,17-tetramethyl-8,13-divinylporphyrin-2,18-dipropanoato(2-)]iron(III)]
- degradation of heme-resistant BACH1 mutant (Mut-Bach1) (BACH1): did not degrade Mut-Bach1
- mitochondrial gene expression [1]: increased
- HMOX1 expression (HMOX1): increased
- ECAR (TNBC cells (BM1)): lower basal ECAR
- maximum OCR (TNBC cells (BM1)): higher maximum OCR
- spare respiratory capacity (TNBC cells (BM1)): higher spare respiratory capacity
- PDX tumor volume, weight, size compared to controls [2]: considerable reduction in tumor volumes
- pPDH (Ser293) protein expression in PDX tumors (pPDH (Ser293)): depleted
- breast tumor growth / volume (MB436 xenograft tumors): neither hemin nor metformin alone significantly altered tumor growth
